Laboratory results: US5705649A, “Protein staining compositions and methods” (Promega Corporation, priority 1995, dated 1998)

Columns and labels:
[1] = Spectral analyses of Coomassie Blue R and Promega Green 1, 2, 3; type: physicochemical
Experimental: The three solutions of Promega Green 1, 2, and 3, from examples 1, 2 and 3 respectively, were diluted approximately 500 fold into a 1:1 solution of methanol:water. The spectra of the resulting solutions and of a 12 μg/ml solution of Coomassie Blue R (in 1:1 methanol:water) were recorded from 700 to 340 nm versus 1:1 methanol:water. […] All of the derivatives gave essentially identical spectra; however, the maximal absorbance of the diluted Promega Green i was about twice that seen for the other derivatives. The derivatives had two peak absorptions in the region of the spectrum scanned, a major peak at around 630 nm and a second peak at around 440 nm. The following absorbances were recorded at the peaks near 630 nm for the three Promega Green dye solutions (diluted 1:500 in 1:1 methanol:water): […]

[2] = tested on: carbonic anhydrase; assay: Staining in polyacrylamide gels not containing SDS; conditions: 50 mM Tris-HCl pH 8.0
Experimental: (§1) A polyacrylamide gel was made containing a 10% separating gel and a 3% stacking gel having 50 mM Tris-HCl pH 8.0 as a buffer. A sample loading solution was made containing Promega Green 1 dissolved in 50 mM Tris-HCl, pH 8.0, 20% glycerol. Samples of bovine serum albumin (BSA) and carbonic anhydrase were added to the sample buffer. The samples were loaded onto the gel and the gel was assembled into a BioRad miniprotean II gel system. An electrode buffer solution of 50 mM Tris pH 8.0 was used to fill the buffer chamber and a voltage of 150 volts was applied to the apparatus. […] Therefore, the stain need not be used only in systems containing SDS.

[3] = tested on: bovine serum albumin (BSA); assay: Staining in polyacrylamide gels not containing SDS; conditions: 50 mM Tris-HCl pH 8.0
Experimental: as §1

[4] = tested on: Promega Mid-Range Molecular Weight Markers; assay: Detection of proteins during SDS-PAGE electrophoresis (dye in cathode buffer)
From the text: Solutions for the formation and electrophoresis of proteins were made according to the instructions given in Experiments in Gene Fusions, Silhavy, Berman, Enquist, Cold Spring Harbor Laboratory Press, Cold Spring Harbor, N.Y. with the following changes:
a) The SDS concentration in the upper and lower gel buffer components were reduced to result in a 0.05% final SDS concentration in the gel. Thus, the composition of 4× upper gel buffer was 0.5M Tris-HCl, pH 6.8, 0.2 % (w/v) sodium dodecylsulfate (SDS) and the composition of 4× lower gel buffer was 1.5M Tris-HCl, pHS.8, 0.2 % (w/v) SDS.
b) The SDS concentration in the electrophoretic (electrode) buffer was reduced to 0.04% final concentration. Thus, 4× electrode (anode or cathode) buffer was made by dissolving 60 g Tris base, 288 g glycine, and 8 g SDS dissolved in water and then diluting with water to 5 liters. Another name sometimes used for "electrode" buffer is "running" buffer.
c) The SDS concentration in the 2× sample buffer was reduced to 1% final SDS concentration. Thus, 2× sample buffer was made by mixing 0.5 ml of betamercaptoethanol, 0.25 ml of 0.1% (w/v) bromophenol blue, 1 ml of 10 % (w/v) SDS, 3 ml of water, and 5.3 ml of 2× glycerol buffer. 2× glycerol buffer is made by mixing 12.5 ml of 4× upper gel buffer and 20 ml of glycerol and diluting the resulting solution to 60 ml with water. Another name sometimes used for "sample" buffer is "loading" buffer.
d) Electrophoresis was performed using a BIO-RAD miniprotein II electrophoresis apparatus and gels were poured such that i cm of space was present between the bottom of the loading wells and the separating gel.
In other electrophoresis experiments reported in this application, the buffers used were as described above in this example. In some cases, as in this example, where preparation of a solution of dye in 150 ml of cathode (or electrode) buffer is specified, an amount of stock solution of a dye was first added to 150 ml of cathode buffer and then 125 ml of the resulting solution was used to fill the cathode buffer chamber (which holds 125 ml) in the electrophoresis apparatus. In other cases, where addition of stock solution of dye to the cathode buffer is specified without reference to the volume of cathode buffer or with reference to such volume being "125 ml," the stock solution was added directly to 125 ml of cathode buffer already in the cathode buffer chamber.
The samples used were prepared with Promega Mid-Range Molecular Weight Markers solution (Promega Corp., Madison, Wis., USA, Catalog No. V5231) (referred to hereinafter as "Promega Mid-Range [Molecular Weight] Markers or Standards") diluted into Sample Buffer. […]

CCCCCCCC(=O)N(c1ccc(OCC)cc1)c1ccc(C(=C2C=CC(=[N+](CC)Cc3cccc(S(=O)(=O)[O-])c3)C=C2)c2ccc(N(CC)Cc3cccc(S(=O)(=O)O)c3)cc2)cc1 [Promega Green 1]
Absorbance at the peak near 630 nm ([1]; diluted 1:500 in 1:1 methanol:water): 1.66 | maximal absorbance relative to the other derivatives ([1]; diluted approximately 500 fold): about twice | staining of carbonic anhydrase in gel without SDS [2]: seen to migrate through the gel as stained bands | staining of BSA in gel without SDS [3]: seen to migrate through the gel as stained bands | lowest protein amount per band visible while the gel was running ([4]; 10% SDS-PAGE, dye in cathode buffer, white plastic card behind gel): 1.0 µg | lowest protein amount per band visible by the end of the run (most of the bands) ([4]; essentially clear background): 0.5 µg
